In US11529391B2, “Reversing deficient hedgehog signaling restores deficient skeletal regeneration” (The Board of Trustees of the Leland Stanford Junior …, priority 2017, dated 2022):
Entries after “also recorded” stand apart in the source; their conditions may differ.

Experiments:
[1] = system: post-fracture day 7 WT mSSCs; assay: In vitro osteogenesis of mSSCs under Hh antagonism, alizarin red staining; format: cell-based, mouse; details: post-fracture day 7 WT mSSCs treated in vitro
Description: To investigate if Hh signaling is essential for mSSC-dependent osteogenesis, we antagonized Hh signaling in post-fracture day 7 WT mSSCs in vitro using XL139, a small molecule antagonist of Smo.
(§1) Cell culture. Cells were maintained in vitro in Minimum Essential Media (MEM) with 10% FBS and 1% penicillin-streptomycin (Penstrep) under 2% O2/7.5% CO2. Each plate was coated with 0.1% gelatin. Cultured cells were lifted using collagenase II buffer (Sigma-Aldrich). For mSSC colony forming assays, cells were cultured for 2 weeks and colonies were counted using phase microscopy. The cells were lifted for staining and analysis by FACS. Osteogenic differentiation medium consisted of Dulbecco's Modified Eagle Medium with 10% FBS, 100 μg/ml ascorbic acid, and 10 mM-glycerophosphate. mSSCs isolated from P3, WT, and db mice were maintained in either regular media (MEM-alpha medium with 10% FBS, 1% Penstrep) or regular media supplemented with Ihh (R&D, […]), Shh (R&D, 500 pg/mL), or PBS under 2% O2/7.5% CO2 conditions. After 7 days, cells were lifted for staining and analysis by FACS or for RNA extraction and qRT-PCR.

mSSCs and BCSPs = assay: FACS count of mSSCs and BCSPs in calluses after Hh antagonism; format: in vivo, mouse; details: post-fracture day 7 calluses of treated versus untreated WT mice
Experimental: (§2) To verify that Hh antagonism impairs fracture repair in vivo, we administered XL139 to WT mice via oral gavage immediately after injury and assessed healing femur strength at post-fracture week 4 using MST.
Isolation of skeletal progenitor cells. Uninjured femora and fractured femora were harvested at post-fracture days 3, 7, 10, 14, 21, and 28. Fracture calluses were dissected using microscopy. Tissues were crushed with mortar and pestle in collagenase buffer (2.2 mg/ml collagenase, DNase, 1000×1 M CaCl2, 100×p188, 50×1 M Hepes, m199 solvent), and heated to 37° C. for 10 min to activate collagenase. Each sample underwent 3 serial digestions at 37° C. for 25 minutes under gentle agitation. Dissociated cells were filtered through a 40 μm nylon mesh and washed in FACS buffer (2% fetal bovine serum in PBS). Each sample was pelleted at 200 g at 4° C. and resuspended in FACS buffer. Then, each sample was layered onto a histopaque gradient prior to centrifugation at 1400 rpm for 15 minutes at room temperature with zero acceleration. The cloudy interphase was aspirated, washed with FACS buffer, and centrifuged. The cells were stained with fluorochrome-conjugated antibodies against CD45, Ter119, Tie2, αv-integrin, Ly 51, CD105, Thy 1.1, and Thy 1.2 for purification by flow cytometry. Cells were sorted twice (once on “yield,” then on “purity”) to increase purity (BD FACS Aria).

WT mice = assay: Femoral fracture healing after Hh antagonism, Mechanical Strength Testing (MST); format: in vivo, mouse; details: oral gavage immediately after injury, post-fracture week 4, versus untreated
Experimental: as §2
Femoral fractures. Ten-week old mice were anesthetized with aerosolized isoflurane. Analgesia was administered and the surgical site was prepared prior to skin incision. A medial parapatellar incision was created. The patella was dislocated laterally to expose the femoral condyles. The medullary cavity was reamed using a 25 to 23 G×⅝-inch regular bevel needle (BD) prior to insertion of an intramedullary pin of equal diameter into the medullary cavity. A transverse, middiaphyseal fracture was made using scissors. The pin remained in situ to provide relative stability during healing. The patella was relocated, muscles were reapproximated, and the skin was closed using a 6/0 nylon suture. Animals were radiographed to verify fracture alignment and assess fracture fixation. Animals with fracture displacement were excluded. Pin diameter was adjusted according to femoral cavity lumen diameter to minimize migration.
Mechanical Strength Testing (MST). MST was performed using a delaminator run by R.H. Dauskardt laboratory at Stanford University. […] The maximum load (N) to fracture was recorded (FIG. 9).

Ihh expression = assay: qRT-PCR of Ihh expression in mSSC and BCSP cultures in supplemented media; format: cell-based, mouse
Experimental: To determine if high levels of glucose or TNFα could directly repress Hh expression in skeletal niches, we cultured FACS-sorted mSSCs and BCSPs from uninjured P3 WT femora in glucose-supplemented, TNFα-supplemented, or control media for 48 hours. […] Furthermore, neutralization of TNFα with anti-TNFα antibodies restored Ihh expression levels in mSSCs cultured in dbLR serum (FIG. 15).
as §1
Quantitative reverse transcription polymerase chain reaction (qRT-PCR). RNA was isolated from cells using the RNeasy Mini kit (Qiagen) as per manufacturer's instructions. Reverse transcription was performed and gene expression was examined by qRT-PCR using the Applied biosystems Prism 7900HT sequence detection system (Applied Biosystems) and SYBR Green PCR Master Mix (Applied Biosystems). All values were normalized using glyceraldehyde 3-phosphate dehydrogenase for mouse samples and using beta-actin for human samples. Specific primer sequences for genes of interest were obtained from PrimerBank.

Compound	osteogenic potential of mSSCs (alizarin red staining) [1]	number of mSSCs and BCSPs (mSSCs and BCSPs)	healing femur strength (MST) (WT mice)	dose dependence of repression of Ihh expression in BCSPs (Ihh expression; BCSP-derived cultures from uninjured P3 mice)	Ihh expression (qRT-PCR) in BCSP cultures (Ihh expression; BCSPs from uninjured P3 WT femora, supplemented media 48 hours versus control media)	Ihh expression (qRT-PCR) in mSSC cultures (Ihh expression; mSSCs from uninjured P3 WT femora, supplemented media 48 hours versus control media)
CNCc1ccc(C)c(NC(=O)c2ccc(Nc3nc(-c4ccccc4)c4ccccc4n3)cc2)c1 [XL139]	dose-dependent reduction; also recorded: reduces	highly significant reduction	reduced significantly			
TNFα				dose dependent; also recorded: dose-dependent	significantly reduced; also recorded: reduces	significantly reduced; also recorded: significantly diminishes
